Measured values taken from patent US9695155B2, “Herbicidal substituted pyrimidinyloxy benzene compounds” (E. I. DU PONT DE NEMOURS AND COMPANY, priority 2013, dated 2017).

Columns and labels:
oilseed rape = assay: Test D postemergence; assay type: in vivo, Brassica napus; conditions: for plant injury at 16 g/ha / plant injury at 31 g/ha / plant injury at 62 g/ha / plant injury at 125 g/ha: Brassica napus, post-emergence; for plant injury at 16 g/ha: scale 0-100, read-out: Plant response rating, Oilseed Rape; for plant injury at 31 g/ha / plant injury at 62 g/ha / plant injury at 125 g/ha: read-out: Plant response rating, Oilseed Rape
Excerpt: (§1) Seeds of plant species selected from bluegrass (annual bluegrass, Poa annua), blackgrass (Alopecurus myosuroides), canarygrass (littleseed canarygrass, Phalaris minor), chickweed (common chickweed, Stellaria media), galium (catchweed bedstraw, Galium aparine), bromegrass, downy (downy bromegrass, Bromus tectorum), field poppy (Papaver rhoeas), field violet (Viola arvensis), green foxtail (Setaria viridis), deadnettle (henbit deadnettle, Lamium amplexicaule), Italian ryegrass (Lolium multiflorum), kochia (Kochia scoparia), lambsquarters (Chenopodium album), oilseed rape (Brassica napus), pigweed (Amaranthus retroflexus), chamomile (scentless chamomile, Matricaria inodora), Russian thistle (Salsola kali), speedwell (bird's-eye speedwell, Veronica persica), spring barley (Hordeum vulgare), spring wheat (Triticum aestivum), wild buckwheat (Polygonum convolvulus), wild mustard (Sinapis arvensis), wild oat (Avena fatua), wild radish (Raphanus raphanistrum), windgrass (Apera spica-venti), winter barley (Hordeum vulgare), and winter wheat (Triticum aestivum) were planted into a silt loam soil and treated preemergence with test chemicals formulated in a non-phytotoxic solvent mixture which included a surfactant.
(§2) At the same time, these species were planted in pots containing Redi-Earth® planting medium (Scotts Company, 14111 Scottslawn Road, Marysville, Ohio 43041) comprising spaghnum peat moss, vermiculite, wetting agent and starter nutrients and treated with postemergence applications of the test chemicals formulated in the same manner. Plants ranged in height from 2 to 18 cm (1- to 4-leaf stage). Treated plants and controls were maintained in a controlled growth environment for 7 to 21 days after which time all species were compared to controls and visually evaluated. Plant response ratings, summarized in Table D, are based on a scale of 0 to 100 where 0 is no effect and 100 is complete control. A dash (-) response means no test result.

Italian ryegrass = assay: Test D preemergence; assay type: in vivo, Lolium multiflorum; conditions: for pest or weed control at 16 g/ha / pest or weed control at 31 g/ha: read-out: Plant response rating, Ryegrass, Italian
Excerpt: as §1, §2

green foxtail = assay: Test D postemergence; assay type: in vivo, Setaria viridis; conditions: for pest or weed control at 16 g/ha / pest or weed control at 31 g/ha / pest or weed control at 62 g/ha / pest or weed control at 125 g/ha: Setaria viridis, post-emergence; for pest or weed control at 16 g/ha: scale 0-100, read-out: Plant response rating, Foxtail, Green; for pest or weed control at 31 g/ha / pest or weed control at 62 g/ha / pest or weed control at 125 g/ha: read-out: Plant response rating, Foxtail, Green
Excerpt: as §1, §2

spring wheat = assay: Test D postemergence; assay type: in vivo, Triticum aestivum; conditions: for plant injury at 16 g/ha / plant injury at 31 g/ha / plant injury at 62 g/ha / plant injury at 125 g/ha: Triticum aestivum, post-emergence; for plant injury at 16 g/ha: scale 0-100, read-out: Plant response rating, Wheat, Spring; for plant injury at 31 g/ha / plant injury at 62 g/ha / plant injury at 125 g/ha: read-out: Plant response rating, Wheat, Spring
Excerpt: as §1, §2

winter wheat = assay: Test D postemergence; assay type: in vivo, Triticum aestivum; conditions: for plant injury at 16 g/ha / plant injury at 31 g/ha / plant injury at 62 g/ha / plant injury at 125 g/ha: Triticum aestivum, post-emergence; for plant injury at 16 g/ha: scale 0-100, read-out: Plant response rating, Wheat, Winter; for plant injury at 31 g/ha / plant injury at 62 g/ha / plant injury at 125 g/ha: read-out: Plant response rating, Wheat, Winter
Excerpt: as §1, §2

deadnettle = assay: Test D postemergence; assay type: in vivo, Lamium amplexicaule; conditions: for pest or weed control at 16 g/ha / pest or weed control at 31 g/ha / pest or weed control at 62 g/ha / pest or weed control at 125 g/ha: Lamium amplexicaule, post-emergence; for pest or weed control at 16 g/ha: scale 0-100, read-out: Plant response rating, Deadnettle; for pest or weed control at 31 g/ha / pest or weed control at 62 g/ha / pest or weed control at 125 g/ha: read-out: Plant response rating, Deadnettle
Excerpt: as §1, §2

signalgrass = assay: Test F preemergence; assay type: in vivo, Brachiaria platyphylla; conditions: 21 days, scale 0 to 100
Excerpt: Seeds of plant species selected from bermudagrass (Cynodon dactylon), surinam grass (Brachiaria decumbens), large (Lg) crabgrass (Digitaria sanguinalis), crabgrass, naked (naked crabgrass, Digitaria nuda), foxtail, green (green foxtail, Setaria viridis), johnsongrass (Sorghum halepense), kochia (Kochia scoparia), morningglory (pitted morningglory, Ipomoea lacunosa), nutsedge, purple (purple nutsedge, Cyperus rotundus), ragweed (common ragweed, Ambrosia elatior), mustard, black (black mustard, Brassica nigra), guineagrass (Panicum maximum), dallisgrass (Paspalum dilatatum), barnyardgrass (Echinochloa crus-galli), sandbur (southern sandbur, Cenchrus echinatus), sowthistle (common sowthistle, Sonchus oleraceous), Italian ryegrass (Lolium multiflorum), signalgrass (broadleaf signalgrass, Brachiaria platyphylla), dayflower (Virginia (VA) dayflower, Commelina virginica), bluegrass (annual bluegrass, Poa annua), quackgrass (Elytrigia repens), mallow (common mallow, Malva sylvestris), buckwheat, wild (wild buckwheat, Polygonum convolvulus), leafy spurge (Euphorbia esula), chickweed (common chickweed, Stellaria media), wild poinsettia (Euphorbia heterophylla), and pigweed (Amaranthus retroflexus) were planted into a blend of loam soil and sand and treated preemergence with test chemicals formulated in a non-phytotoxic solvent mixture which included a surfactant.
Treated plants and controls were maintained in a greenhouse for 21 days, after which time all species were compared to controls and visually evaluated. Plant response ratings, summarized in Table F, are based on a scale of 0 to 100 where 0 is no effect and 100 is complete control. A dash (-) response means no test result.

[1] = 31 g ai/ha, scale 0 to 100 (0 no effect, 100 complete control)
[2] = 62 g ai/ha, scale 0 to 100 (0 no effect, 100 complete control)
[3] = 125 g ai/ha, scale 0 to 100 (0 no effect, 100 complete control)
[4] = Lolium multiflorum, pre-emergence, 16 g ai/ha, scale 0 (no effect) to 100 (complete control)
[5] = Lolium multiflorum, pre-emergence, 31 g ai/ha, scale 0 (no effect) to 100 (complete control)
[6] = Lolium multiflorum, pre-emergence, 125 g ai/ha, scale 0-100, read-out: Plant response rating, Ryegrass, Italian

Fc1cccc(Oc2ncc(Cl)cn2)c1-n1cc(C(F)F)nn1 [Compound 141, 5-chloro-2-[2-[4-(difluoromethyl)-1H-1,2,3-triazol-1-yl]-3-fluorophenoxy]pyrimidine]
plant injury at 16 g/ha (oilseed rape; 16 g ai/ha): 75% | plant injury at 31 g/ha (oilseed rape; [1]): 95% | plant injury at 62 g/ha (oilseed rape; [2]): 100% | plant injury at 125 g/ha (oilseed rape; [3]): 100% | pest or weed control at 16 g/ha (Italian ryegrass; [4]): 35% | pest or weed control at 31 g/ha (Italian ryegrass; [5]): 55% | pest or weed control at 62 g/ha (Italian ryegrass; Lolium multiflorum, pre-emergence, 62 g ai/ha, scale 0-100, read-out: Plant response rating, Ryegrass, Italian): 70% | pest or weed control at 125 g/ha (Italian ryegrass; [6]): 75% | pest or weed control at 16 g/ha (green foxtail; 16 g ai/ha): 15% | pest or weed control at 31 g/ha (green foxtail; [1]): 20% | pest or weed control at 62 g/ha (green foxtail; [2]): 45% | pest or weed control at 125 g/ha (green foxtail; [3]): 100% | plant injury at 16 g/ha (spring wheat; 16 g ai/ha): 15% | plant injury at 31 g/ha (spring wheat; [1]): 20% | plant injury at 62 g/ha (spring wheat; [2]): 25% | plant injury at 125 g/ha (spring wheat; [3]): 35% | plant injury at 16 g/ha (winter wheat; 16 g ai/ha): 5% | plant injury at 31 g/ha (winter wheat; [1]): 5% | plant injury at 62 g/ha (winter wheat; [2]): 20% | plant injury at 125 g/ha (winter wheat; [3]): 50% | pest or weed control at 16 g/ha (deadnettle; 16 g ai/ha): 100% | pest or weed control at 31 g/ha (deadnettle; [1]): 100% | pest or weed control at 62 g/ha (deadnettle; [2]): 100% | pest or weed control at 125 g/ha (deadnettle; [3]): 100%

N#Cc1cccc(Oc2ncc(Cl)cn2)c1-n1cc(OCC(F)(F)F)cn1 [Compound 274, 3-[(5-chloro-2-pyrimidinyl)oxy]-2-[4-(2,2,2-trifluoroethoxy)-1H-pyrazol-1-yl]benzonitrile]
plant injury at 16 g/ha (oilseed rape; 16 g ai/ha): 40% | plant injury at 31 g/ha (oilseed rape; [1]): 55% | plant injury at 62 g/ha (oilseed rape; [2]): 65% | plant injury at 125 g/ha (oilseed rape; [3]): 75% | Plant response rating, Signalgrass (signalgrass; 16 g ai/ha): 75 | Plant response rating, Signalgrass (signalgrass; 31 g ai/ha): 70 | Plant response rating, Signalgrass (signalgrass; 62 g ai/ha): 100 | Plant response rating, Signalgrass (signalgrass; 125 g ai/ha): 100 | Plant response rating, Signalgrass (signalgrass; 250 g ai/ha): 100 | pest or weed control at 16 g/ha (Italian ryegrass; [4]): 0% | pest or weed control at 31 g/ha (Italian ryegrass; [5]): 0% | pest or weed control at 125 g/ha (Italian ryegrass; [6]): 70% | pest or weed control at 16 g/ha (green foxtail; 16 g ai/ha): 15% | pest or weed control at 31 g/ha (green foxtail; [1]): 20% | pest or weed control at 62 g/ha (green foxtail; [2]): 25% | pest or weed control at 125 g/ha (green foxtail; [3]): 45% | plant injury at 16 g/ha (spring wheat; 16 g ai/ha): 10% | plant injury at 31 g/ha (spring wheat; [1]): 15% | plant injury at 62 g/ha (spring wheat; [2]): 15% | plant injury at 125 g/ha (spring wheat; [3]): 25% | plant injury at 16 g/ha (winter wheat; 16 g ai/ha): 10% | plant injury at 31 g/ha (winter wheat; [1]): 20% | plant injury at 62 g/ha (winter wheat; [2]): 20% | plant injury at 125 g/ha (winter wheat; [3]): 30% | pest or weed control at 16 g/ha (deadnettle; 16 g ai/ha): 50% | pest or weed control at 31 g/ha (deadnettle; [1]): 45% | pest or weed control at 62 g/ha (deadnettle; [2]): 60% | pest or weed control at 125 g/ha (deadnettle; [3]): 70%

N#Cc1cccc(Oc2ncc(Cl)cn2)c1-n1cc(OC(F)F)cn1 [Compound 97]
Plant response rating, Signalgrass (signalgrass; 16 g ai/ha): 25 | Plant response rating, Signalgrass (signalgrass; 31 g ai/ha): 90 | Plant response rating, Signalgrass (signalgrass; 62 g ai/ha): 85 | Plant response rating, Signalgrass (signalgrass; 125 g ai/ha): 100 | Plant response rating, Signalgrass (signalgrass; 250 g ai/ha): 100

FCc1cccc(Oc2ncc(Cl)cn2)c1-n1cc(I)cn1 [Compound 245]
Plant response rating, Oilseed Rape (oilseed rape; 16 g ai/ha, scale 0-100): 30 | Plant response rating, Oilseed Rape (oilseed rape; [1]): 45 | Plant response rating, Oilseed Rape (oilseed rape; [2]): 60 | Plant response rating, Oilseed Rape (oilseed rape; [3]): 75 | Plant response rating, Ryegrass, Italian (Italian ryegrass; 16 g ai/ha, scale 0 (no effect) to 100 (complete control)): 15 | Plant response rating, Ryegrass, Italian (Italian ryegrass; 31 g ai/ha, scale 0 (no effect) to 100 (complete control)): 15 | Plant response rating, Ryegrass, Italian (Italian ryegrass; 125 g ai/ha, scale 0-100): 40 | Plant response rating, Foxtail, Green (green foxtail; 16 g ai/ha, scale 0-100): 10 | Plant response rating, Foxtail, Green (green foxtail; [1]): 20 | Plant response rating, Foxtail, Green (green foxtail; [2]): 35 | Plant response rating, Foxtail, Green (green foxtail; [3]): 45 | Plant response rating, Wheat, Spring (spring wheat; 16 g ai/ha, scale 0-100): 10 | Plant response rating, Wheat, Spring (spring wheat; [1]): 10 | Plant response rating, Wheat, Spring (spring wheat; [2]): 10 | Plant response rating, Wheat, Spring (spring wheat; [3]): 20 | Plant response rating, Wheat, Winter (winter wheat; 16 g ai/ha, scale 0-100): 5 | Plant response rating, Wheat, Winter (winter wheat; [1]): 10 | Plant response rating, Wheat, Winter (winter wheat; [2]): 10 | Plant response rating, Wheat, Winter (winter wheat; [3]): 10 | Plant response rating, Deadnettle (deadnettle; 16 g ai/ha, scale 0-100): 100 | Plant response rating, Deadnettle (deadnettle; [1]): 100 | Plant response rating, Deadnettle (deadnettle; [2]): 100 | Plant response rating, Deadnettle (deadnettle; [3]): 100
